In one experiment the test system is murine choroid explants. As to the kind of experiment: Ex-vivo angiogenic sprouting assay, murine choroid explants. It counts as cell-based, mouse. Particulars: 0.5 μM peptide, 30 ng/ml VEGF, Collagen I matrix. How it is done:
FIG. 7: QM111T inhibits choroidal neovascularization. Murine choroid explants were embedded in a Collagen I matrix and supplemented with 30 ng/ml VEGF and either 0.5 μM of QM111, QM111T, QM107 or a combination.
Thoracic aortas were dissected from either male wistar rats (˜200 g) or 4-5 week old male C57BL6J mice (both obtained from Charles River, UK). The fat surrounding the aortas was removed as were any branches and the tissue sliced into <1 mm rings. Choroid membranes explants were isolated from 21 to 28 day old male C57BL6J mice. Eyes were punctured with scissors and the iris/cornea/lens and retina removed. The resultant Choroid was then cut into 1 mm3 chunks. After dissection both aortic rings and choroid explants were incubated overnight at 37° C. in Opti-MEM (Thermo Fisher Scientific) prior to embedding on ice in 0.15 ml of 1 mg/ml Collagen I (Millipore) in E4 medium (Thermo Fisher Scientific) in 48 well plates (Corning). After 30 mins incubation at 37° C., to set the Collagen, wells were supplemented with 200 ul Opti-MEM with 1% FBS. For rat aortic rings 10 ng/ml of […] (R and D Systems) was added, for mouse aortic and choroid explants 30 ng/ml was used. Treatments at the concentrations indicated were also added to this and media replenished every 3 days. Angiogenic sprouts from explants were counted after 7 days and expressed as sprouts/ring or explant.

Experiment [1] has as its system pathological retinal neovascularisation (preretinal tufts). As to the kind of experiment: Oxygen-induced retinopathy (OIR) mouse model. It is filed as in vivo. Particulars: mouse pups, 0.5 μM QM111 injected into eye on return to normoxia vs PBS eye, analysed at P17. How it is done:
FIG. 5. […] Data from an oxygen-induced model of retinopathy study. In this study. OIR was generated by exposing mice pups to 75% oxygen for 5 days from P7-P12. On P13, mice are injected with PBS (left eye) and 0.5 μM QM111 (right eye). They were then placed into 20% oxygen from P13-P17 where they underwent hypoxia. which led to neovascularisation taking place. OIR samples were collected at P17 and retinal structures were stained with isolectin GS-IB4. Neovascularisation was quantified by measuring the total areas where preretinal tufts were present. […] Data is from 8 mice.
Neonatal mice (both male and female) at P7 were exposed to 75% oxygen for 5 days with their nursing mothers. At P12, they were returned to normoxia. Animals were euthanized at P12 to determine the area of vaso-obliteration or at P17 to determine the rate of retinal revascularization and pre-retinal neovascularization. […] Sub retinal injections of the treatments described and controls was administered at day P12 upon return to normoxic conditions. Analysis of retinal vasculature was done as previously described. […] Pre-retinal neovascular tufts were readily distinguished from the superficial vascular plexus by focusing just above the inner limiting membrane. Areas of vascular obliteration and pathological neovascularization (neovascular tufts) were quantified using Adobe Photoshop CS3. […]

A further experiment relates to HUVECs. As to the kind of experiment: Scratch wound cell migration assay. It is filed as cell-based, human. The note with it: synthetic peptides alone or in combination. As for the experimental part:
FIG. 2. Miniaturization strategy to identify minimum peptide sequence for inhibition of angiogenesis. Schematic diagram showing the series of deletion mutants generated to ascertain the anti-angiogenic peptide sequence contained in syndecan-3 (A). Purified GST fusion proteins were used at a concentration of 0.5 μM in scratch wound migration assays using confluent monolayers of HUEVCs. Wound closure was measured after 7 hours. In this way we identified that the antiangiogenic properties of Syndecan-3 reside between P195 and A221 of the protein.
FIG. 3. […] Comparison of the antiangiogenic sequences in the murine and human forms of syndecan-3 (A). Amino acids which are different are highlighted in yellow. Scratch wound cell migration assays comparing the anti-migratory effects of QM107, QM111 and QM111M on HUVECS (B). […]
Confluent monolayers of HUVECs were scratched with a pipette tip, cells were then washed twice with PBS prior to the addition of growth medium supplemented with either GST fusion proteins or peptide treatments. Wounds were monitored by time lapse microscopy using an Olympus IX81 Microscope Hamamatsu Orca ER digital camera. Regions of interests in the scratch area were recorded using Cell^M software (Olympus) and micrographs of ROIs taken every 30 min for 16 hours with an Olympus IX81 inverted microscope. The initial and final gap was measured using ImageJ software (NIH).

A further experiment deals with rat aortic rings. As to the kind of experiment: Ex-vivo angiogenic sprouting assay, rat aortic rings. It is filed as cell-based. The note with it: peptides 0.5 μM alone or in combination, n=30-31 rings/condition. As for the experimental part:
FIG. 1. […] Schematic diagram showing the GST fusion protein consisting of GST fused at the N-terminus of the complete coding sequence of the murine Syndecan-3 extracellular core protein. This protein was expressed and purified from bacteria and was tested in the rat aortic ring angiogenic sprouting assay. Aortas were dissected from rats before being sliced into 1 mm wide rings. They are then embedded in collagen I with 0.5 μM of either GST or S3ED purified fusion proteins. 10 ng/ml of VEGF-A was then added into feeding media to encourage angiogenesis. After 7 days, angiogenic sprouts were counted. Images were captured on day 7 using a Hamamatsu Orca ER digital camera and processed using Cell M software. Data is from at least 10 rings per condition from 8 […]. (A) Phase contrast micrographs of aortic rings after 7 days. (B) Graph showing the number of sprouts formed after 7 days (*** p≤0.005).
FIG. 4. […] Comparison of the antiangiogenic sequences in the murine and human forms of syndecan-3 (A). Amino acids which are different are highlighted in yellow. Rat aortic rings where treated with 0.5 μM of either QM107, QM111, QM111M or in combination. […]
Thoracic aortas were dissected from either male wistar rats (˜200 g) or 4-5 week old male C57BL6J mice (both obtained from Charles River, UK). […] Angiogenic sprouts from explants were counted after 7 days and expressed as sprouts/ring or explant.

Entries after “also recorded” stand apart in the source; their conditions may differ.

As for “LPLPLTTVA (listed as Homo sapiens) [QM111T]”, in the experiment with murine choroid explants, the “angiogenic sprouting from murine choroid explants” value was “inhibited angiogenesis to the same degree as QM111 and QM107”.
For the substance “PPFTATT AVIRTTGVRR LLPLPLTTVA (PPFTATTAVIRTTGVRRLLPLPLTTVA; listed as Homo sapiens) [QM111, human syndecan-3 peptide corresponding to the anti-angiogenic region]”, the “pathological neovascularisation (area of preretinal tufts) in oxygen-induced retinopathy” value in experiment [1] was “reduced pathological angiogenesis; also recorded: blocks pathological neovascularization”. In addition, the “endothelial cell (HUVEC) migration in scratch wound assay” value in the experiment with HUVECs is “inhibited endothelial cell migration to the same degree”. In the experiment with rat aortic rings, the “angiogenic sprout formation from rat aortic rings” value is recorded as “inhibited to a similar degree”.
As for “QM111M: mouse peptide, 27 amino acids of the anti-angiogenic region (P195-A221) of murine syndecan-3 (PPATATVADVRTTGIQGMLPLPLTTAA; UniProt Q64519 195-221, looked up, fragment)”, in the experiment on HUVECs, the “endothelial cell (HUVEC) migration in scratch wound assay” value was “inhibited endothelial cell migration to the same degree”. Besides, the “angiogenic sprout formation from rat aortic rings” value with rat aortic rings is on record as “inhibited to a similar degree”.
